Experimental data taken from ChEMBL document CHEMBL4359915, “Design, synthesis and biological evaluation of novel diazaspiro[4.5]decan-1-one derivatives as potential chitin synthase inhibitors and antifungal agents” (Eur J Med Chem, 2019).
≈ marks a conversion by molar mass, not a printed value.

How the values were obtained:
Candida albicans [1] = assay: Antifungal activity against Candida albicans ATCC 76615 assessed as growth inhibition measured after 24 hrs by two-fold broth dilution method; format: functional; conditions: ATCC 76615, 24 h
Candida tropicalis = assay: Inhibition of Candida tropicalis ATCC 750 chitin synthase at 300 ug/ml using UDP-GlcNAc as substrate relative to control
Candida albicans [2] = assay: Antifungal activity against Candida albicans ATCC 90023 assessed as growth inhibition measured after 24 hrs by two-fold broth dilution method; format: functional; conditions: ATCC 90023, 24 h
Cryptococcus neoformans [3] = assay: Antifungal activity against Cryptococcus neoformans ATCC 32719 assessed as growth inhibition measured after 24 hrs by two-fold broth dilution method; format: functional; conditions: ATCC 32719, 24 h
[4] = Inhibition of Candida tropicalis ATCC 750 chitin synthase using UDP-GlcNAc as substrate
Aspergillus fumigatus [5] = assay: Antifungal activity against Aspergillus fumigatus GIMCC 3.19 assessed as growth inhibition measured after 24 hrs by two-fold broth dilution method; format: functional; conditions: GIMCC 3.19, 24 h
Aspergillus flavus [6] = assay: Antifungal activity against Aspergillus flavus ATCC 16870 assessed as growth inhibition measured after 24 hrs by two-fold broth dilution method; format: functional; conditions: ATCC 16870, 24 h
Staphylococcus aureus [7] = assay: Antibacterial activity against methicillin-resistant Staphylococcus aureus N315 assessed as growth inhibition measured after 24 hrs by two-fold broth dilution method; format: functional; conditions: N315, 24 h
Bacillus spizizenii = assay: Antibacterial activity against Bacillus subtilis ATCC 6633 assessed as growth inhibition measured after 24 hrs by two-fold broth dilution method; format: functional; conditions: ATCC 6633, 24 h
Staphylococcus aureus [8] = assay: Antibacterial activity against Staphylococcus aureus ATCC 25923 assessed as growth inhibition measured after 24 hrs by two-fold broth dilution method; format: functional; conditions: ATCC 25923, 24 h
Escherichia coli = assay: Antibacterial activity against Escherichia coli JM 109 assessed as growth inhibition measured after 24 hrs by two-fold broth dilution method; format: functional; conditions: JM 109, 24 h
Proteus vulgaris = assay: Antibacterial activity against Bacillus proteus ATCC 8427 assessed as growth inhibition measured after 24 hrs by two-fold broth dilution method; format: functional; conditions: ATCC 8427, 24 h
Pseudomonas aeruginosa = assay: Antibacterial activity against Pseudomonas aeruginosa ATCC 9027 assessed as growth inhibition measured after 24 hrs by two-fold broth dilution method; format: functional; conditions: ATCC 9027, 24 h
Aspergillus flavus [9] = assay: Antifungal activity against Aspergillus flavus ATCC 16870 assessed as fractional inhibitory concentration index after 24 hrs in presence of fluconazole by two-dimensional broth microdilution checkboard assay; format: functional
Candida albicans [10] = assay: Antifungal activity against Candida albicans ATCC 76615 after 24 hrs in presence of fluconazole by two-dimensional broth microdilution checkboard assay; format: functional; conditions: ATCC 76615, 24 h
Candida albicans [11] = assay: Antifungal activity against Candida albicans ATCC 76615 assessed as fractional inhibitory concentration index after 24 hrs in presence of fluconazole by two-dimensional broth microdilution checkboard assay; format: functional
Aspergillus flavus [12] = assay: Antifungal activity against Aspergillus flavus ATCC 16870 after 24 hrs in presence of fluconazole by two-dimensional broth microdilution checkboard assay; format: functional; conditions: ATCC 16870, 24 h
Candida albicans [13] = assay: Antifungal activity against Candida albicans ATCC 76615 assessed as fluconazole MIC after 24 hrs in presence of fluconazole by two-dimensional broth microdilution checkboard assay; format: functional; conditions: ATCC 76615, 24 h
Cryptococcus neoformans [14] = assay: Antifungal activity against Cryptococcus neoformans ATCC 32719 assessed as fluconazole MIC after 24 hrs in presence of fluconazole by two-dimensional broth microdilution checkboard assay; format: functional; conditions: ATCC 32719, 24 h
Aspergillus flavus [15] = assay: Antifungal activity against Aspergillus flavus ATCC 16870 assessed as fluconazole MIC after 24 hrs in presence of fluconazole by two-dimensional broth microdilution checkboard assay; format: functional; conditions: ATCC 16870, 24 h
Aspergillus fumigatus [16] = assay: Antifungal activity against Aspergillus fumigatus GIMCC 3.19 assessed as fractional inhibitory concentration index after 24 hrs in presence of fluconazole by two-dimensional broth microdilution checkboard assay; format: functional
Aspergillus fumigatus [17] = assay: Antifungal activity against Aspergillus fumigatus GIMCC 3.19 after 24 hrs in presence of fluconazole by two-dimensional broth microdilution checkboard assay; format: functional; conditions: GIMCC 3.19, 24 h
Aspergillus fumigatus [18] = assay: Antifungal activity against Aspergillus fumigatus GIMCC 3.19 assessed as fluconazole MIC after 24 hrs in presence of fluconazole by two-dimensional broth microdilution checkboard assay; format: functional; conditions: GIMCC 3.19, 24 h
Cryptococcus neoformans [19] = assay: Antifungal activity against Cryptococcus neoformans ATCC 32719 assessed as fractional inhibitory concentration index after 24 hrs in presence of fluconazole by two-dimensional broth microdilution checkboard assay; format: functional
Cryptococcus neoformans [20] = assay: Antifungal activity against Cryptococcus neoformans ATCC 32719 after 24 hrs in presence of fluconazole by two-dimensional broth microdilution checkboard assay; format: functional; conditions: ATCC 32719, 24 h

SMILES	MIC (Candida albicans [1]) [µM]	inhibition (Candida tropicalis) [%]	MIC (Candida albicans [2]) [µM]	MIC (Cryptococcus neoformans [3]) [µM]	IC50 [4] [µM]	MIC (Aspergillus fumigatus [5]) [µM]	MIC (Aspergillus flavus [6]) [µM]	MIC (Staphylococcus aureus [7]) [µM]	MIC (Bacillus spizizenii) [µM]	MIC (Staphylococcus aureus [8]) [µM]	MIC (Escherichia coli) [µM]	MIC (Proteus vulgaris) [µM]	MIC (Pseudomonas aeruginosa) [µM]	further results
NC(=O)OC[C@H](O)[C@@H](O)[C@H](N)C(=O)N[C@H](C(=O)O)[C@H]1O[C@@H](n2cc(CO)c(=O)[nH]c2=O)[C@H](O)[C@@H]1O [POLYOXIN B]	32 (≈ 16.2 µg/mL)	85	129 (≈ 65.5 µg/mL)	64 (≈ 32.5 µg/mL)	80	32 (≈ 16.2 µg/mL)	32 (≈ 16.2 µg/mL)	–	–	–	–	–	–	–
O=C(Nc1ccc(Br)cc1)[C@H](O)[C@@H](O)C(=O)N1CCC2(CCNC2=O)CC1	290 (≈ 128 µg/mL)	74.7	290 (≈ 128 µg/mL)	1160 (≈ 511 µg/mL)	180	1160 (≈ 511 µg/mL)	150 (≈ 66 µg/mL)	1160 (≈ 511 µg/mL)	580 (≈ 255 µg/mL)	580 (≈ 255 µg/mL)	1160 (≈ 511 µg/mL)	1160 (≈ 511 µg/mL)	290 (≈ 128 µg/mL)	–
COc1ccccc1NC(=O)[C@H](O)[C@@H](O)C(=O)N1CCC2(CCNC2=O)CC1	650 (≈ 254 µg/mL)	20.4	40 (≈ 15.7 µg/mL)	330 (≈ 129 µg/mL)	–	330 (≈ 129 µg/mL)	650 (≈ 254 µg/mL)	330 (≈ 129 µg/mL)	650 (≈ 254 µg/mL)	1310 (≈ 513 µg/mL)	650 (≈ 254 µg/mL)	330 (≈ 129 µg/mL)	650 (≈ 254 µg/mL)	–
COc1cccc(NC(=O)[C@H](O)[C@@H](O)C(=O)N2CCC3(CCNC3=O)CC2)c1	160 (≈ 62.6 µg/mL)	47.5	650 (≈ 254 µg/mL)	330 (≈ 129 µg/mL)	–	330 (≈ 129 µg/mL)	650 (≈ 254 µg/mL)	650 (≈ 254 µg/mL)	330 (≈ 129 µg/mL)	650 (≈ 254 µg/mL)	650 (≈ 254 µg/mL)	650 (≈ 254 µg/mL)	650 (≈ 254 µg/mL)	–
O=C(Nc1ccc(F)cc1)[C@H](O)[C@@H](O)C(=O)N1CCC2(CCNC2=O)CC1	340 (≈ 129 µg/mL)	36.7	340 (≈ 129 µg/mL)	670 (≈ 254 µg/mL)	–	340 (≈ 129 µg/mL)	340 (≈ 129 µg/mL)	340 (≈ 129 µg/mL)	340 (≈ 129 µg/mL)	670 (≈ 254 µg/mL)	670 (≈ 254 µg/mL)	340 (≈ 129 µg/mL)	1350 (≈ 512 µg/mL)	–
O=C(Nc1ccc(F)cc1F)[C@H](O)[C@@H](O)C(=O)N1CCC2(CCNC2=O)CC1	640 (≈ 254 µg/mL)	65.2	320 (≈ 127 µg/mL)	640 (≈ 254 µg/mL)	290	80 (≈ 31.8 µg/mL)	320 (≈ 127 µg/mL)	80 (≈ 31.8 µg/mL)	160 (≈ 63.6 µg/mL)	320 (≈ 127 µg/mL)	320 (≈ 127 µg/mL)	160 (≈ 63.6 µg/mL)	320 (≈ 127 µg/mL)	–
O=C(Nc1ccc(F)c(F)c1)[C@H](O)[C@@H](O)C(=O)N1CCC2(CCNC2=O)CC1	640 (≈ 254 µg/mL)	36.7	320 (≈ 127 µg/mL)	80 (≈ 31.8 µg/mL)	–	1290 (≈ 513 µg/mL)	320 (≈ 127 µg/mL)	1290 (≈ 513 µg/mL)	640 (≈ 254 µg/mL)	640 (≈ 254 µg/mL)	640 (≈ 254 µg/mL)	640 (≈ 254 µg/mL)	320 (≈ 127 µg/mL)	–
O=C(Nc1cc(C(F)(F)F)cc(C(F)(F)F)c1)[C@H](O)[C@@H](O)C(=O)N1CCC2(CCNC2=O)CC1	32 (≈ 15.9 µg/mL)	2.3	260 (≈ 129 µg/mL)	64 (≈ 31.8 µg/mL)	–	515 (≈ 256 µg/mL)	515 (≈ 256 µg/mL)	260 (≈ 129 µg/mL)	510 (≈ 254 µg/mL)	1030 (≈ 512 µg/mL)	60 (≈ 29.8 µg/mL)	1030 (≈ 512 µg/mL)	510 (≈ 254 µg/mL)	fractional inhibitory concentration index (FICI) (Aspergillus flavus [9]): 0.5; MIC (Candida albicans [10]): 16 µM; fractional inhibitory concentration index (FICI) (Candida albicans [11]): 1; MIC (Aspergillus flavus [12]): 129 µM; MIC (Candida albicans [13]): 26 µM; MIC (Cryptococcus neoformans [14]): 52 µM; MIC (Aspergillus flavus [15]): 52 µM; fractional inhibitory concentration index (FICI) (Aspergillus fumigatus [16]): 0.8; MIC (Aspergillus fumigatus [17]): 129 µM; MIC (Aspergillus fumigatus [18]): 52 µM; fractional inhibitory concentration index (FICI) (Cryptococcus neoformans [19]): 3; MIC (Cryptococcus neoformans [20]): 129 µM
O=C(Nc1ccccc1F)[C@H](O)[C@@H](O)C(=O)N1CCC2(CCNC2=O)CC1	340 (≈ 129 µg/mL)	23.1	670 (≈ 254 µg/mL)	670 (≈ 254 µg/mL)	–	670 (≈ 254 µg/mL)	340 (≈ 129 µg/mL)	340 (≈ 129 µg/mL)	670 (≈ 254 µg/mL)	340 (≈ 129 µg/mL)	670 (≈ 254 µg/mL)	670 (≈ 254 µg/mL)	1350 (≈ 512 µg/mL)	–
C[C@H]1COc2c(N3CCN(C)CC3)c(F)cc3c(=O)c(C(=O)O)cn1c23 [LEVOFLOXACIN]	–	–	–	–	–	–	–	11 (≈ 3.98 µg/mL)	11 (≈ 3.98 µg/mL)	22 (≈ 7.95 µg/mL)	11 (≈ 3.98 µg/mL)	5 (≈ 1.81 µg/mL)	3 (≈ 1.08 µg/mL)	–
